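Grown in 96-well plates, cells were treated for 48 hours with each compound at five concentrations. Insufficient inhibition: endpoint recorded as highest concentration tested. TGI: concentration producing complete growth inhibition.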

Holding throughout (test): inhibition of tumour cell growth, NCI panel, 48 h
Assay [1] has as its system A498 renal.
Assay [2] has as its system HCC-2998 colon.
Assay [3] relates to MOLT-4 leukemia.
Assay [4] relates to MDA-MB-231 breast.
In assay [5] the test system is K-562 leukemia.
The test system of assay [6] is MDA-MB-435.
The test system of assay [7] is HL-60(TB) leukemia.
The subject of assay [8] is OVCAR-4 ovarian.
Assay [9] relates to SNB-75 CNS.
Assay [10] concerns SK-OV-3 ovarian.

For `CC(=O)O[C@H]1CC(C)(C)C(=C=C/C(C)=C/C=C/C=C/C=C(C)/C=C2C=C(/C=C/[C@@]34O[C@]3(C)C[C@@H](O)CC4(C)C)C(=O)O/2)[C@](C)(O)C1`, the TGI was above 100 µM in assay [1]; above 100 µM in assay [2]; 24.1 µM in assay [3]; 97.4 µM in [4]; 57.2 µM in assay [5]; above 100 µM in [6]. Besides, the TGI is 4.9 µM in [7], above 100 µM in assay [8] and 28 µM in [9].

`CC(N=NNc1ccc(-c2nc3ccccc3[nH]2)cc1)C(=O)O` (stereo not given): the TGI in assay [1], in assay [10], in [3], in assay [4], in assay [5] and in [6] was above 100 µM throughout. Also, the TGI in [7], in [8] and in [9] was above 100 µM in each case.

With `Cc1cc(C)nc(NS(=O)(=O)c2ccc(NC(=O)c3c4ccccc4nc4ccccc34)cc2)n1`, the TGI in assay [1], in assay [10], in assay [2], in assay [3], in assay [4] and in assay [5] was above 100 µM in each case. For the same molecule, the TGI in assay [6], in [8] and in [9] was above 100 µM each time.

`C=CCC1(C#N)C(=S)NC2=C(C(=O)CC(C)(C)C2)C1c1ccccc1` (stereo not given): the TGI is above 100 µM in assay [3]; above 100 µM in assay [4]; above 100 µM in [5]; above 100 µM in assay [6]; above 100 µM in [7]; 88.9 µM in assay [8]. The molecule further yielded a TGI in assay [9] of 74.8 µM.

As for `O=c1[nH]c2nc3ccccc3c(=O)n2/c1=C/c1ccc(Cl)cc1`, the TGI was above 100 µM in assay [10]; 65.3 µM in assay [2]; above 100 µM in assay [3]; above 100 µM in [4]; 58.5 µM in assay [6]; above 100 µM in assay [7]. The TGI in assay [8] is above 100 µM.

For the molecule `COC(=O)[C@H]1C=NN[C@@H]1C(=O)N1[C@H]2CC3CC[C@@]2(CS1(=O)=O)C3(C)C`, the TGI in [1], in [10], in assay [2], in assay [3], in assay [4] and in assay [5] was above 100 µM in each case. The TGI in [6], in [7] and in assay [8] was above 100 µM each time.

As to `COC(=O)C1(NC(=O)C(CC(=O)OCc2ccccc2)NC(=O)OCc2ccccc2)CCCCCC1` (stereo not given), the TGI was 94.6 µM in assay [10]; above 100 µM in assay [3]; above 100 µM in assay [4]; 82.9 µM in assay [5]; 74.4 µM in assay [6]; 51 µM in assay [7]. Also, the figures for the TGI in assay [8] and in assay [9] were 43.8 µM and above 100 µM, respectively.

On to `COc1ccc2c(c1)C(=O)CC1c3cnccc3C(=O)N21` (stereo not given), for which the TGI in [1], in [10], in [2], in assay [3], in assay [4] and in assay [5] was above 100 µM in each case. The TGI in assay [6] was above 31.6 µM; in [8], above 100 µM; in [9] it was above 100 µM.

Turning to `CC(C)=CCN1c2ccccc2NC(=O)CC1C` (stereo not given), the TGI in assay [1], in assay [10], in [2], in assay [3], in [4] and in assay [5] was above 100 µM each time. For the same molecule, the results for the TGI in assay [6], in assay [7] and in assay [8] were above 100 µM, above 100 µM and 73.8 µM, respectively.

On to `COc1ccc([C@H]2[C@H]3COC(=O)[C@H]3C(C#N)=C3Sc4ccccc4N32)cc1`, for which the TGI in [1] is 98.3 µM; in [10], above 100 µM; in assay [2], above 100 µM; in [3], above 67.7 µM; in assay [4], above 67.2 µM; in assay [5], above 100 µM. For the same molecule, the TGI in [6] was above 100 µM; in assay [8], above 100 µM; in [9], above 26.7 µM.

Regarding `N#Cc1c(-c2ccc(Cl)cc2)c2c(nn3c4ccc5ccccc5c4nnc23)[nH]c1=O`, the TGI in [1] is 3.69 µM; in [10] it was 7.99 µM; in assay [2], 8.87 µM; in [3], above 46.4 µM; in [4] it was 20.6 µM; in assay [5], above 69.6 µM. Further, the TGI in assay [6] was 8.69 µM; in assay [7] it was above 100 µM; in assay [8], 21.6 µM.

Regarding `CCO/C(=N/S(=O)(=O)C(F)(F)F)N(C(C)C)C(C)C`, the TGI in assay [1], in assay [3], in [4], in assay [6], in [7] and in assay [8] was above 100 µM throughout.

With `CC(C)/C(Cl)=N/OC(=O)Nc1ccc(Br)cc1`, the TGI in [1] was determined as 33.8 µM; in assay [10], 30.3 µM; in [2], 29.4 µM; in assay [3], 5.45 µM; in assay [4] it was 31.2 µM; in assay [6] it was 30.7 µM. In addition, the values for the TGI in assay [7], in assay [8] and in assay [9] were 7.62 µM, 31.8 µM and 34.3 µM, respectively.

In the case of `CN(C)CC(O)c1ccc(Cl)c2ccccc12` (stereo not given), the TGI in assay [1] was 45.9 µM; in [10], above 100 µM; in assay [2], 29.9 µM; in [3], 55.8 µM; in [4], above 73.4 µM; in assay [6], 61.2 µM. The TGI in assay [7] was above 78 µM; in assay [8], above 100 µM; in assay [9], above 89.1 µM.

`C=CCSC1=N/C(=C\c2ccc(Cl)cc2)C(=O)N1CC=C`: the TGI in assay [1] was 52.4 µM; in assay [10], above 100 µM; in assay [2] it was above 100 µM; in assay [4], above 100 µM; in assay [5], above 100 µM; in assay [6], above 100 µM. Further, the TGI in [7] amounted to 24.5 µM; in assay [8], 94.7 µM.

Take `COc1cc(C2c3c(ccc4ccccc34)C(=O)C3CCC(=O)N32)cc(OC)c1OC` (stereo not given): the TGI in assay [1], in assay [10], in [3], in assay [4], in [5] and in assay [6] was above 50 µM each time. In addition, the TGI in assay [7], in [8] and in assay [9] was above 50 µM throughout.

Values taken from PubChem BioAssay (NCI).
